Results on 8 compounds are retold here after publication PMC11317440, “Soloxolone para-methylanilide effectively suppresses aggressive phenotype of glioblastoma cells including TGF-β1-induced glial-mesenchymal transition in vitro and inhibits growth of U87 glioblastoma xenografts in mice” (Frontiers in Pharmacology, 2024).

Data set [1] deals with U87 glioblastoma cells. The data set is described as follows: MTT cell viability assay, U87 cells, 48 h. Format: cell-based, human. The note with it: for relative cytotoxicity: 48 h of incubation, U87; for MNTC: Homo sapiens, U-87 MG, 48 h, read-out: non-toxic concentration that reduced U87 cell viability by less than 10%. How it is done:
Cells were seeded in quadruplicate in 96-well plates at 10,000 cells/well and allowed to adhere overnight. The medium was then replaced with serum-free DMEM containing increasing concentrations of soloxolone amides for 48 h. After incubation, 3-(4,5-dimethylthiazol-2-yl)-2,5-diphenyltetrazolium bromide (MTT dye) was added at a final concentration of 0.5 mg/mL and left for 2 h. The resulting formazan crystals were dissolved in DMSO and the optical density was measured at 570 nm using a Multiscan RC plate reader (Thermo LabSystems, Helsinki, Finland).

Data set [2] relates to U87 glioblastoma xenograft. Set-up: method as in Markov et al., 2022a. Conditions: 9 administered at a similar dose and schedule; ref Markov et al., 2022a; cited from earlier work.
Data set [3] deals with U87 primary tumorspheres. Set-up: method as in Markov et al., 2023. Conditions: ref Markov et al., 2023; cited from earlier work.
Data set [4] relates to TGF-β1-induced U87 cells. The data set is described as follows: Cell morphology (cell size) of TGF-β1-induced U87 cells. Format: cell-based, human. The note with it: TGF-β1 50 ng/mL, non-toxic concentrations, 48 h. On the procedure:
After seeding at a concentration of 5,000 cells/well in triplicate in 96-well plates and incubating overnight, U87 and U118 cells were exposed to TGF-β1 (50 ng/mL) and non-toxic concentrations of soloxolone amides for 48 h. An EVOS XL Core microscope with an integrated CMOS camera (Thermo Fisher Scientific, USA) was then used to examine cell morphology at ×20 magnification. Aspect ratio (AR) and area were quantified for at least 150 cells in each experimental group using ImageJ software (NIH, USA).

Data set [5] has as its system TGF-β1-treated U87 cells. The data set is described as follows: Adhesion of U87 cells to culture plastic (TrypLE treatment assay). Format: cell-based, human. Conditions: TGF-β1 50 ng/mL, non-toxic concentrations, 48 h. On the procedure: Adhesiveness of glioblastoma cells was assessed by two independent methods. First, cell adhesion to culture plastic was tested using a trypsin treatment assay, as previously described ([Sava et al., 2004]; [Mazuryk et al., 2015]; [van Dijk et al., 2017]). Briefly, U87 and U118 cells (10,000 cells per well of a 96-well plate, n = 4) were cultured with TGF-β1 (50 ng/mL) and non-toxic concentrations of soloxolone amides for 48 h and then treated with a 1:20 dilution of TrypLE Express (Gibco, USA) in PBS for 3 min at 37°C. Non-adherent cells were then removed by a triple PBS wash, and the remaining adherent cells were fixed with 4% formaldehyde and stained with crystal violet dye (0.1% w/v). Images were captured using the iBright 1,500 Imaging System (Invitrogen, USA), and the cell-occupied area was calculated using ImageJ. Alternatively, the number of adherent cells was quantified using the MTT assay.

The subject of data set [6] is U87 cells. The data set can be described thus: MTT assay 72 h, 7 and TMZ alone and combined, synergy (HSA), U87. Format: cell-based, human. How it is done:
(§1) The drug synergy score was calculated for the dose-response matrix according to the highest single-agent (HSA) model using the SynergyFinder + web application (https://www.synergyfinder.org/).

Data set [7] is described as follows: Toxicity assessment in U87 glioblastoma-bearing mice. Format: in vivo, athymic nude mice. Conditions: 7 20 mg/kg i.p. or TMZ 10 mg/kg i.p. injected alone. On the procedure:
During the experiment, the general status and body weight of the animals were monitored. At the end of the experiment, livers and kidneys were collected and organ indices were calculated as (organ weight/body weight) × 100%, followed by the normalization of organ indices of experimental mice to organ indices of control mice.

For data set [8], the system named is U87 glioblastoma xenograft. The data set can be described thus: U87 glioblastoma xenograft model. Format: in vivo, athymic nude mice. Conditions: end of the experiment (day 19); 7 20 mg/kg i.p., TMZ 10 mg/kg i.p. How it is done: A xenograft model of tumor progression was induced by subcutaneous (s.c.) implantation of U87 glioblastoma cells (2×10^7 cells/mL) suspended in 0.1 mL of saline buffer into the left flank of athymic nude mice. On day 4 after tumor transplantation, the mice were divided into four groups: (1) mice received intraperitoneal (i.p.) injections of 10% Tween-80 (vehicle) (n = 6); (2) mice received i.p. injections of compound 7 in 10% Tween-80 at a dose of 20 mg/kg (n = 5); (3) mice received i.p. injections of TMZ in saline buffer at a dose of 10 mg/kg (n = 5); (4) mice received combination therapy of compound 7 and TMZ at the same dosage and administration route (n = 6). Compound 7 was administered three times per week; in total seven injections were performed. TMZ was administered daily except weekends; in total eleven injections were performed. During the experiment, the tumor volumes were determined three times per week using caliper measurements and were calculated as V = (D × d^2)/2, where D is the longest diameter of the tumor node and d is the shortest diameter of the tumor node perpendicular to D. Mice were sacrificed on day 19 after tumor transplantation and material (tumor nodes, livers, and kidneys) was collected for subsequent analysis.

Data set [9] has as its system U87 cells. The data set is described as follows: Annexin V-FITC/propidium iodide flow cytometry, U87, 72 h, TMZ/7/NAC. Format: cell-based, human. Conditions: U87, TMZ 500 μM, 7 600 nM. On the procedure:
[…] To quantify the total proportion of apoptotic cells in control and experimental groups, the events accumulated in the lower right quadrant (early apoptosis) and upper right quadrant (late apoptosis) were summarized.
(§2) After staining, 10,000 cells per sample were analyzed on a NovoCyte flow cytometer using NovoExpress software (ACEA Biosciences, Inc., USA).
(Flow cytometry measures light scatter and fluorescence of single cells or particles in a stream.)

The test system of data set [10] is ROS production in U87 cells. The data set is described as follows: Intracellular ROS (DCFDA staining, flow cytometry), U87. Format: cell-based, human. The note with it: U87, TMZ 125 μM, 7 100 nM, NAC 2 mM, 72 h. How it is done: Intracellular ROS levels were measured according to previously published studies ([Han et al., 2008]; [Samandari-Bahraseman et al., 2023]; [Kopsida et al., 2024]), using the DCFDA/H2DCFDA Cellular ROS Assay Kit (Abcam, Cambridge, United Kingdom). U87 cells were incubated with 7 and TMZ with or without NAC for 72 h (n = 3). Cells were then washed with PBS and incubated with 20 µM H2DCFDA for 30 min under standard conditions, followed by the removal of H2DCFDA-containing medium and double washing with PBS.
as §2

Data set [11] deals with U87 glioblastoma tumor tissue. The data set can be described thus: Histology and immunohistochemistry of U87 xenograft tumors. Format: in vivo, athymic nude mice. The note with it: day 19. How it is done:
For the histological study, the tumor specimens were fixed in 10% neutral-buffered formalin (BioVitrum, Moscow, Russia), dehydrated in ascending ethanols and xylols and embedded in HISTOMIX paraffin (BioVitrum, Russia). The paraffin sections (3–4 µm) were sliced on a Microm HM 355S microtome (Thermo Fisher Scientific, Waltham, MA, USA) and stained with hematoxylin and eosin.
For the immunohistochemical study, the tumor sections were deparaffinized and rehydrated. Antigen retrieval was carried out after exposure in a microwave oven at 700 W. The samples were incubated with anti-Ki-67 (ab16667, Abcam, Boston, MA, USA) (n = 3), anti-GFAP (ab194325, Abcam, USA) (n = 3), and anti-N-cadherin (ab76011, Abcam, USA) (n = 3) primary antibodies according to the manufacturer’s protocol. Then, the sections were incubated with secondary horseradish peroxidase (HPR)-conjugated antibodies, exposed to the 3,30-diaminobenzidine (DAB) substrate (Rabbit Specific HRP/DAB (ABC) Detection IHC Kit, ab64261, Abcam, USA) and stained with Mayer’s hematoxylin.
Five to ten random fields were examined from the tumor specimens of three mice in each group, for a total of 15–30 test fields.

The test system of data set [12] is EPNT-5 cells. The data set can be described thus: MTT assay 72 h, 7 and TMZ alone and combined, synergy (HSA), EPNT-5. The note with it: MTT. Format: cell-based, mouse. On the procedure: as §1
The subject of data set [13] is U118 cells. The data set is described as follows: MTT assay 72 h, 7 and TMZ alone and combined, synergy (HSA), U118. Format: cell-based, human. On the procedure: as §1
On the technique in general: Formazan colour is commonly taken as a measure of viable cells.

Bounds are passed on as bounds.

Take `CC1(C)C(=O)C(C#N)=C[C@]2(C)C3=CC(=O)[C@@H]4[C@@H]5C[C@@](C)(C(=O)NCCc6c[nH]c7ccccc67)CC[C@]5(C)CC[C@@]4(C)[C@]3(C)CCC12` (stereo partly drawn) [compound 9]: in data set [1], the relative cytotoxicity result is reported as “moderate” and the MNTC was 100 nM. The “reduction in tumor weight compared to the vehicle-treated group” value in data set [2] was 3.4 fold. Further, in data set [3], the “concentration causing a large-scale reduction of spheroids” value was 4 µM. For the same compound, the “effect on size/morphology of TGF-β1-induced U87 cells” value in data set [4] is recorded as “restored their morphological characteristics to the control cells”.
On to `CC1(C)C(=O)C(C#N)=C[C@]2(C)C3=CC(=O)[C@@H]4[C@@H]5C[C@@](C)(C(=O)Nc6cccnc6)CC[C@]5(C)CC[C@@]4(C)[C@]3(C)CCC12` (stereo partly drawn) [compound 6, N-(pyridin-3-yl)-2-cyano-3,12-dioxo-18βH-olean-9(11),1(2)-dien-30-amide], for which, in [1], the relative cytotoxicity entry was “moderate” and the MNTC came to 100 nM.
For `CC(C)(C)c1cc(CCCNC(=O)[C@@]2(C)CC[C@]3(C)CC[C@]4(C)[C@H](C(=O)C=C5[C@@]6(C)C=C(C#N)C(=O)C(C)(C)C6CC[C@]54C)[C@@H]3C2)cc(C(C)(C)C)c1O` (stereo partly drawn) [compound 8, N-(3′-(3″,5″-di-tert-butyl-4″-hydroxyphenyl)propyl)-2-cyano-3,12-dioxo-18βH-olean-9(11),1(2)-dien-30-amide], in that order: “high” and 50 nM.
For `CC1(C)C(=O)C(C#N)=C[C@]2(C)C3=CC(=O)[C@@H]4[C@@H]5C[C@@](C)(C(=O)NCCCCCO)CC[C@]5(C)CC[C@@]4(C)[C@]3(C)CCC12` (stereo partly drawn) [compound 2, N-(5′-hydroxypentyl)-2-cyano-3,12-dioxo-18βH-olean-9(11),1(2)-dien-30-amide] the same measures were “moderate” and 100 nM.
Turning to `CN(C)CCNC(=O)[C@@]1(C)CC[C@]2(C)CC[C@]3(C)[C@H](C(=O)C=C4[C@@]5(C)C=C(C#N)C(=O)C(C)(C)C5CC[C@]43C)[C@@H]2C1` (stereo partly drawn) [compound 3, N-(2′-(dimethylamino)ethyl)-2-cyano-3,12-dioxo-18βH-olean-9(11),1(2)-dien-30-amide], in [1], the relative cytotoxicity result is reported as “low” and the MNTC amounted to 300 nM. Besides, the “adhesion of TGF-β1-treated U87 cells to culture plastic (crystal violet)” value in data set [5] was “restoring it to control levels”.
In the case of `CC1(C)C(=O)C(C#N)=C[C@]2(C)C3=CC(=O)[C@@H]4[C@@H]5C[C@@](C)(C(=O)Nc6ccc(Br)cc6)CC[C@]5(C)CC[C@@]4(C)[C@]3(C)CCC12` (stereo partly drawn) [compound 5, N-(4′-bromophenyl)-2-cyano-3,12-dioxo-18βH-olean-9(11),1(2)-dien-30-amide], in data set [1], the relative cytotoxicity result is “high” and the MNTC came out at 50 nM. The “effect on size/morphology of TGF-β1-induced U87 cells” value in [4] was “restored their morphological characteristics to the control cells”.
On to `CN(C)CCCNC(=O)[C@@]1(C)CC[C@]2(C)CC[C@]3(C)[C@H](C(=O)C=C4[C@@]5(C)C=C(C#N)C(=O)C(C)(C)C5CC[C@]43C)[C@@H]2C1` (stereo partly drawn) [compound 4, N-(3′-(dimethylamino)propyl)-2-cyano-3,12-dioxo-18βH-olean-9(11),1(2)-dien-30-amide], for which, in data set [1], the relative cytotoxicity entry is on record as “low” and the MNTC was 300 nM.
Turning to `Cn1nnc2c(C(N)=O)ncn2c1=O` [TMZ, temozolomide, reference compound], the IC50 in data set [6] (MTT) is 213 µM; in data set [12], greater than 500 µM; in data set [13] (MTT) it was greater than 500 µM. For the same compound, the “reduction of the cytotoxic effect by NAC” value in data set [6] (U87, NAC 2 mM, TMZ 125 μM, 7 100 nM) is given as 22.3%; in data set [13] (U118, NAC 2 mM, TMZ 125 μM, 7 100 nM), 32.5%. The “toxic effects (body weight and organ indices)” value in data set [7] was “no toxic effects”. The “reduction in tumor weight compared to the vehicle” value in [8] is 21.9 fold. For the same compound, the “cells in the right quadrants (apoptosis)” value in data set [9] worked out at 9%. Further, the “ROS accumulation (in words)” value in data set [10] is “did not increase ROS accumulation”. Besides, the “N-cadherin and GFAP levels in tumor sections (immunohistochemistry)” value in data set [11] is listed as “significantly reduced their levels”. In addition, in [11], the “reduction in the numerical density of Ki-67-positive cells compared to vehicle” value worked out at 9 fold.

What is called IC50 is the concentration that gives 50% inhibition.
